From the supplement of paper PMC11061612

Tests used:
NB12 (Neuroblastoma) [1] = experiment: Bliss excess, mean over the matrix (fraction); higher = more synergy
Procedure, shortened: (§1)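 Bliss excess equals the observed combination effect minus the expected value EA + EB − EA·EB, where EA and EB are the effects of each agent alone. Combination Emax is the second-highest inhibition within the matrix. Inhibition was scaled from CellTiter-Glo 2.0 luminescence, with 0 set by vehicle wells and 1 by blank wells, after 72 hours of two-drug dosing of cells plated in 1536-well plates.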

SK-MEL-2 (Melanoma) [2] = experiment: as above
Procedure, shortened: as §1

NB12 (Neuroblastoma) [3] = experiment: combination Emax (second highest fraction inhibited in the dose matrix, 72 h); higher = more inhibition; extreme values may be limits of the assay
Procedure, shortened: as §1

SK-MEL-2 (Melanoma) [4] = experiment: as above
Procedure, shortened: as §1

GB-1 (Glioblastoma) = experiment: as above
Procedure, shortened: as §1

[5] = test system: LK-2 (Squamous Cell Lung Carcinoma); experiment: as above
Procedure, shortened: as §1

[6] = test system: NCI-H23 (Lung Adenocarcinoma); experiment: as above
Procedure, shortened: as §1

SF539 (Glioblastoma) = experiment: as above
Procedure, shortened: as §1

[7] = test system: OAW-42 (Ovarian Carcinoma); experiment: as above
Procedure, shortened: as §1

[8] = test system: PANC-03-27 (Pancreatic Carcinoma); experiment: as above
Procedure, shortened: as §1

| SMILES | Bliss excess (NB12 (Neuroblastoma) [1]) | Bliss excess (SK-MEL-2 (Melanoma) [2]) | combination Emax (NB12 (Neuroblastoma) [3]) | combination Emax (SK-MEL-2 (Melanoma) [4]) | combination Emax (GB-1 (Glioblastoma)) | combination Emax [5] | combination Emax [6] | combination Emax (SF539 (Glioblastoma)) | combination Emax [7] | combination Emax [8] |
| --- | --- | --- | --- | --- | --- | --- | --- | --- | --- | --- |
| NC1(C(=O)N[C@@H](CCO)c2ccc(Cl)cc2)CCN(c2ncnc3[nH]ccc23)CC1 [Capivasertib] + CC(C)n1c(=O)n(C)c2cnc3cc(F)c(-c4ccc(OCCCN5CCCCC5)nc4)cc3c21 [AZD1390] (first compound max 10 µM, 7x7, partner max 0.3 µM) | 0.0009 | -0.0125 | 0.504 | 0.176 | 0.275 | 0.0982 | 0.297 | 0.617 | 0.439 | 0.241 |
| NC1(C(=O)N[C@@H](CCO)c2ccc(Cl)cc2)CCN(c2ncnc3[nH]ccc23)CC1 [Capivasertib] + CCN(CCO)CCCOc1ccc2c(Nc3cc(CC(=O)Nc4cccc(F)c4)[nH]n3)ncnc2c1 [AZD2811] (first compound max 10 µM, 7x7, partner max 1 µM) | -0.0279 | -0.0383 | 0.783 | 0.0759 | 0.342 | 0.925 | 0.387 | 0.723 | 0.48 | 0.318 |
| NC1(C(=O)N[C@@H](CCO)c2ccc(Cl)cc2)CCN(c2ncnc3[nH]ccc23)CC1 [Capivasertib] + COc1nnc2ccc(N3CCC(c4ccc(OCCN5CCN(C)C(=O)[C@H]5C)cc4)CC3)nn12 [AZD5153] (first compound max 10 µM, 7x7, partner max 1 µM) | 0.0031 | -0.0015 | 0.985 | 0.578 | 0.48 | 0.422 | 0.773 | 0.707 | 0.619 | 0.307 |
| CS(=O)(=O)CCNCc1ccc(-c2ccc3ncnc(Nc4ccc(OCc5cccc(F)c5)c(Cl)c4)c3c2)o1 [Lapatinib] + NC1(c2ccc(-c3nc4ccn5c(=O)[nH]nc5c4cc3-c3ccccc3)cc2)CCC1 [MK-2206] (first compound max 10 µM, 7x7, partner max 10 µM) | -0.0253 | -0.0096 | 0.843 | 0.692 |  | 0.892 | 0.338 | 0.953 | 0.819 | 0.76 |
| CC1(C)CCC(CN2CCN(c3ccc(C(=O)NS(=O)(=O)c4ccc(NCC5CCOCC5)c([N+](=O)[O-])c4)c(Oc4cnc5[nH]ccc5c4)c3)CC2)=C(c2ccc(Cl)cc2)C1 [Venetoclax] + CCN(CCO)CCCOc1ccc2c(Nc3cc(CC(=O)Nc4cccc(F)c4)[nH]n3)ncnc2c1 [AZD2811] (first compound max 1 µM, 7x7, partner max 1 µM) |  |  |  |  | 0.094 | 0.851 | 0.184 | 0.481 | 0.204 | 0.673 |
| CC1(C)CCC(CN2CCN(c3ccc(C(=O)NS(=O)(=O)c4ccc(NCC5CCOCC5)c([N+](=O)[O-])c4)c(Oc4cnc5[nH]ccc5c4)c3)CC2)=C(c2ccc(Cl)cc2)C1 [Venetoclax] + CN(C)CCCOc1ccc(-c2ccc3ncc4c(c3c2)n(C2CCOCC2)c(=O)n4C)cn1 [AZD0156] (first compound max 1 µM, 7x7, partner max 1 µM) |  |  |  |  | 0.115 | 0.321 | 0.122 | 0.292 | 0.204 | 0.684 |
| CC1(C)CCC(CN2CCN(c3ccc(C(=O)NS(=O)(=O)c4ccc(NCC5CCOCC5)c([N+](=O)[O-])c4)c(Oc4cnc5[nH]ccc5c4)c3)CC2)=C(c2ccc(Cl)cc2)C1 [Venetoclax] + COc1cc(Nc2ncc3c(n2)-c2ccc(Cl)cc2C(c2c(F)cccc2OC)=NC3)ccc1C(=O)O [Alisertib] (first compound max 1 µM, 7x7, partner max 10 µM) |  |  |  |  | 0.478 | 0.848 | 0.464 | 0.454 | 0.652 | 0.56 |
| CC1(C)CCC(CN2CCN(c3ccc(C(=O)NS(=O)(=O)c4ccc(NCC5CCOCC5)c([N+](=O)[O-])c4)c(Oc4cnc5[nH]ccc5c4)c3)CC2)=C(c2ccc(Cl)cc2)C1 [Venetoclax] + C[C@@H]1COCCN1C2=NC(=NC(=C2)C3(CC3)[S@](=N)(=O)C)C4=C5C=CNC5=NC=C4 [AZD6738] (first compound max 1 µM, 7x7, partner max 10 µM) |  |  |  |  | 0.424 | 0.494 | 0.822 | 0.87 | 0.561 | 0.781 |
| CC1(C)CCC(CN2CCN(c3ccc(C(=O)NS(=O)(=O)c4ccc(NCC5CCOCC5)c([N+](=O)[O-])c4)c(Oc4cnc5[nH]ccc5c4)c3)CC2)=C(c2ccc(Cl)cc2)C1 [Venetoclax] + C[C@@H](Nc1cc(F)cc(F)c1)c1cc(C(=O)N(C)C)cc2c(=O)cc(N3CCOCC3)oc12 [AZD8186] (first compound max 1 µM, 7x7, partner max 3 µM) |  |  |  |  | 0.168 | 0.0674 | 0.148 | 0.287 | 0.125 | 0.592 |
| CC1(C)CCC(CN2CCN(c3ccc(C(=O)NS(=O)(=O)c4ccc(NCC5CCOCC5)c([N+](=O)[O-])c4)c(Oc4cnc5[nH]ccc5c4)c3)CC2)=C(c2ccc(Cl)cc2)C1 [Venetoclax] + Cc1cc2ncnn2cc1Nc1ncc2c(n1)n(C1CCOCC1)c(=O)n2C [AZD7648] (first compound max 1 µM, 7x7, partner max 10 µM) |  |  |  |  | 0.135 | 0.266 | 0.184 | 0.341 | 0.425 | 0.584 |
| CC1(C)CCC(CN2CCN(c3ccc(C(=O)NS(=O)(=O)c4ccc(NCC5CCOCC5)c([N+](=O)[O-])c4)c(Oc4cnc5[nH]ccc5c4)c3)CC2)=C(c2ccc(Cl)cc2)C1 [Venetoclax] + Cn1cnc2c(F)c(Nc3ccc(Br)cc3Cl)c(C(=O)NOCCO)cc21 [Selumetinib] (first compound max 1 µM, 7x7, partner max 3 µM) |  |  |  |  | 0.0816 | 0.172 | 0.264 | 0.217 | 0.147 | 0.684 |
